Literature values as cited in US20090155392A1, “Methods and Systems for Sublingual Guarana Administration” (priority 2007, published 2009).

Experiments:
[1] = in vivo
[2] = versus other lithium salts (lithium carbonate, lithium citrate)

## CS(C)(=O)=O [MSM, Methylsulfonylmethane]
[1]
  homocysteine levels in blood: statistically significant lower levels
  joint pain and stiffness: significantly beneficial effect on joint pain and stiffness

## COc1cc(CNC(=O)CCCC/C=C/C(C)C)ccc1O [capsaicin, Capsaicin]
30 minutes and 60 minutes after taking the extract
  mean metabolic rate: significant increase
Two week period
  subjects with reduced body fat: 70%

## O=C([O-])c1cc(=O)[nH]c(=O)[nH]1.[Li+] [lithium orotate, Lithium orotate]
[2]
  bio-activity relative to other lithium salts: 20 times
